pIC50: −log10 of the molar value.
Tests used:
[1] = system: AML and DLBCL patient-derived xenograft models; test: AML and DLBCL patient-derived xenograft models (all models); type: in vivo, CB17 SCID mice; details: all five AML and two DLBCL patient-derived models, 100 mg/kg BID PO
Experimental: (§1) A screen was next performed using a small number of mice/group to assess efficacy of Compound 1 in AML and DLBCL patient-derived xenograft models. Tumor-bearing mice (n=3/group) were treated with vehicle or Compound 1 at 100 mg/kg BID PO.

DHODH = DHODH (Homo sapiens (Human), UniProt Q02127); test: DHODH activity assay (coupled enzyme assay, DCIP reduction); type: biochemical; details: read-out: DHODH inhibition activity, IC50 group
Experimental: The DHODH activity assay is a coupled enzyme assay in which oxidation of DHO and subsequent reduction of ubiquinone are stoichiometrically equivalent to the reduction of DCIP ([…]). The reduction of DCIP is accompanied by a loss of absorbance at 610 nm.
Buffer Preparation: 50 mM tris HCl, 150 mM KCl, and pH 8.0, 0.8% triton.
L-Dihydroorotic acid stock solution of 20 mM in buffer.
2, 6-Dichloroindophenol Sodium salt hydrate stock solution of 20 mM in buffer.
Decylubiquinone stock solution of 20 mM in buffer.
5 μL of Dimethyl sulfoxide or a compound of formula (I) in DMSO solution was added to the wells of a 96 well plate. Compounds of formula (I) were measured at 10 μM.
Protein along with buffer was added, so that the total volume including the DMSO was 87 μL. Compound and protein were incubated for half an hour at room temperature after mixing. 5 μL of 20 mM solution of L-Dihydroorotic acid, 5 μL of 2 mM solution of Decylubiquinone and 3 μL of 2 mM solution of 2, 6-Dichloroindophenol sodium salt hydrate were added to the above solution (total assay volume 100 μL). The mixture was stirred for 2 min and absorbance was recorded at every 10 min at 610 nanometers.
Percent inhibition is calculated as follows: […]
A 2 mM DMSO stock solution of the selected trisubstituted benzoimidazole and benzotriazole derivatives of formula (I) of the present invention to be examined was prepared. Subsequent ⅓rd dilutions were made.
5 μL of each stock of compound of formula (I) was used for each 100 μL assay. Therefore, 5 μL of the 2 mM stock provided 100 μL of 100 μM solution of compound of formula (I), when made up with buffer, protein and substrate. See also: Ulrich et al. (2001) Eur. J. Biochem.268, 1861-1868.

DU4475 [2] = test: Triple negative breast cancer cell line panel, 96 hours; type: cell-based, human; details: DU4475, 96 hours
Experimental: FIG. 10 is a curve showing the relative growth rate of the DU4475 triple negative breast cancer line treated with various concentrations of Compound 1 for 96 hours.
A panel of triple negative cancer cell lines (TNBC) were screened to evaluate whether a subset of TNBC could potentially benefit from treatment with compound 1 as a single agent.

AML_5 tumor = test: Patient-derived AML xenograft model AML_5; type: in vivo, CB17 SCID mice; details: AML 5 patient-derived xenograft, 100 mg/kg BID PO
Experimental: as §1

DU145 = test: Tumor cell line panel screen, 72 hrs; type: cell-based; details: Homo sapiens, DU-145, DU145, prostate cancer
Experimental: (§2) A tumor cell line panel screen aimed at identifying tumor cell subsets that were particularly sensitive to inhibition of DHODH with Compound 1 was performed. Compound 1 is represented by the following structural formula: […]
(§3) These cell lines were treated with Compound 1 for a total of 72 hrs.
(§4) Table 1 is a list of some of the sensitive cell lines to Compound 1 along with GI50 values and max growth response. A maximum inhibition of 100 represents complete growth inhibition; a max inhibition value>100 represents cell killing.

JYSE150 = test: Tumor cell line panel screen, 72 hrs; type: cell-based; details: Homo sapiens, JYSE150, esophageal squamous cell carcinoma
Experimental: as §2, §3, §4

DU4475 [3] = test: Tumor cell line panel screen, 72 hrs; type: cell-based; details: Homo sapiens, DU-4475, DU4475, triple negative breast cancer
Experimental: as §2, §3, §4

MOLM13 = test: Tumor cell line panel screen, 72 hrs; type: cell-based; details: Homo sapiens, MOLM-13, MOLM13, acute myeloid leukemia
Experimental: as §2, §3, §4

MV411 = test: Tumor cell line panel screen, 72 hrs; type: cell-based; details: Homo sapiens, MV4-11, MV411, child acute myeloid leukemia
Experimental: as §2, §3, §4

SR786 = test: Tumor cell line panel screen, 72 hrs; type: cell-based; details: Homo sapiens, SR-786, SR786, anaplastic large cell lymphoma
Experimental: as §2, §3, §4

SUDHL1 = test: Tumor cell line panel screen, 72 hrs; type: cell-based; details: Homo sapiens, SU-DHL-1, SUDHL1, anaplastic large cell lymphoma
Experimental: as §2, §3, §4

CJM = test: Tumor cell line panel screen, 72 hrs; type: cell-based; details: Homo sapiens, melanoma
Experimental: as §2, §3, §4

JVM13 = test: Tumor cell line panel screen, 72 hrs; type: cell-based; details: Homo sapiens, JVM13, B-prolymphocytic leukemia
Experimental: as §2, §3, §4

KYSE510 = test: Tumor cell line panel screen, 72 hrs; type: cell-based; details: Homo sapiens, KYSE-510, KYSE510, esophageal squamous cell carcinoma
Experimental: as §2, §3, §4

RL = test: Tumor cell line panel screen, 72 hrs; type: cell-based; details: Homo sapiens, non-Hodgkin's lymphoma
Experimental: as §2, §3, §4

SUM159PT = test: Tumor cell line panel screen, 72 hrs; type: cell-based; details: Homo sapiens, SUM-159-PT, triple negative breast cancer
Experimental: as §2, §3, §4

SUDHL5 = test: Tumor cell line panel screen, 72 hrs; type: cell-based; details: Homo sapiens, SU-DHL-5, SUDHL5, diffuse large B cell lymphoma
Experimental: as §2, §3, §4

OCILY8 = test: Tumor cell line panel screen, 72 hrs; type: cell-based; details: Homo sapiens, OCI-Ly8, OCILY8, diffuse large B cell lymphoma
Experimental: as §2, §3, §4

MINO = test: Tumor cell line panel screen, 72 hrs; type: cell-based; details: Homo sapiens, mantle cell lymphoma
Experimental: as §2, §3, §4

Sequence of DHODH (Q02127 whole entry): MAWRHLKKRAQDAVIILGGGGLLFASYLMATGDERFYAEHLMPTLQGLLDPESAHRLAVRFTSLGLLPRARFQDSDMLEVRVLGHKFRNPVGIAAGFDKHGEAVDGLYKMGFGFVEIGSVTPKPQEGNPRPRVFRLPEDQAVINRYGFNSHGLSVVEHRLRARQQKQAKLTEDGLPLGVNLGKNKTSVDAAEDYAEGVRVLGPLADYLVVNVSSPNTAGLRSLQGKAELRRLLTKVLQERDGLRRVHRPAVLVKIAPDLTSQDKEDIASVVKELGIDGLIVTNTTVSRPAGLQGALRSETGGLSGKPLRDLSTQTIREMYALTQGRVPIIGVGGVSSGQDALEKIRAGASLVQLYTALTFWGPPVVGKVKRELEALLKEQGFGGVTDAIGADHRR

SMILES: Cc1ccccc1-c1ccc(-c2cc(C(=O)O)c3c(c2)nnn3C)cc1 [Compound 1, 1-methyl-5-(2′-methyl-[1,1′-biphenyl]-4-yl)-1H-benzo[d][1,2,3]triazole-7-carboxylic Acid]
- Anti-tumor activity [1]: anti-tumor activity of Compound 1 was observed
- pIC50 (DHODH): > 7.00
- Cell viability/growth (DU4475 [2]): robustly impaired cell viability/growth
- TGI (AML_5 tumor): > 60%
- GI50 (DU145): 480 nM
- GI50 (JYSE150): 100 nM
- GI50 (DU4475 [3]): 100 nM
- GI50 (MOLM13): 60 nM
- GI50 (MV411): 270 nM
- GI50 (SR786): 50 nM
- GI50 (SUDHL1): 40 nM
- GI50 (CJM): 620 nM
- GI50 (JVM13): 20 nM
- GI50 (KYSE510): 130 nM
- GI50 (RL): 80 nM
- GI50 (SUM159PT): 140 nM
- GI50 (SUDHL5): 20 nM
- GI50 (OCILY8): 20 nM
- GI50 (MINO): 30 nM
